Experimental data reported in patent EP4273147A1, “SUBSTITUTED SPIROLACTAMS, SALTS THEREOF AND THEIR USE AS HERBICIDALLY ACTIVE SUBSTANCES” (Bayer Aktiengesellschaft, priority 2022, dated 2023).

How the values were obtained:
POAAN [1] = experiment: Herbicidal pre-emergence action (Table A7); format: in vivo, Poa annua; details: application rate 320 g/ha, visual grading after ca. 3 weeks
Summary of the method: (§1)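 For this pre-emergence setup, sandy loam pots received seeds of one monocot and one dicot weed species each. The seeds were then covered with soil.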

LOLRI [2] = experiment: Herbicidal pre-emergence action (Table A3); format: in vivo, Lolium rigidum; details: visual grading after ca. 3 weeks
Summary of the method: as §1

STEME [3] = experiment: Herbicidal pre-emergence action (Table A6); format: in vivo, Stellaria media; details: application rate 320 g/ha; visual grading after ca. 3 weeks
Summary of the method: as §1

DIGSA [4] = experiment: Herbicidal post-emergence action (Table B12); format: in vivo, Digitaria sanguinalis
Method: (§2) Seeds of mono- and dicotyledonous weed plants were placed in plastic pots in sandy loam soil (doubly sown with in each case one species of mono- or dicotyledonous weed plants per pot), covered with soil and cultivated in a greenhouse under controlled growth conditions. 2 to 3 weeks after sowing, the test plants were treated at the one-leaf stage. […] After the test plants had been kept in the greenhouse under optimum growth conditions for about 3 weeks, the activity of the preparations was rated visually in comparison to untreated controls. For example, 100% activity = the plants have died, 0% activity = like control plants.

SETVI [5] = experiment: Herbicidal pre-emergence action (Table A5); format: in vivo, Setaria viridis; details: application rate 320 g/ha; visual grading after ca. 3 weeks
Summary of the method: as §1

KCHSC [6] = experiment: Herbicidal pre-emergence action (Table A10); format: in vivo, Kochia scoparia; details: visual grading after ca. 3 weeks
Summary of the method: as §1

MATIN = experiment: Herbicidal pre-emergence action (Table A4); format: in vivo, Matricaria inodora; details: application rate 1280 g/ha; visual grading after ca. 3 weeks
Summary of the method: as §1

DIGSA [7] = experiment: Herbicidal pre-emergence action (Table A12); format: in vivo, Digitaria sanguinalis; details: application rate 320 g/ha; visual grading after ca. 3 weeks
Summary of the method: as §1

ECHCG [8] = experiment: Herbicidal pre-emergence action (Table A2); format: in vivo, Echinochloa crus-galli; details: visual grading after ca. 3 weeks
Summary of the method: as §1

AMARE [9] = experiment: Herbicidal post-emergence action (Table B11); format: in vivo, Amaranthus retroflexus; details: application rate 1280 g/ha
Summary of the method: (§3)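 Treated at one-leaf stage (2–3 weeks after sowing in sandy loam, greenhouse-grown). Visual efficacy rating after about 3 weeks; 0% = like controls, 100% = complete kill.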

AMARE [10] = experiment: Herbicidal pre-emergence action (Table A8); format: in vivo, Amaranthus retroflexus; details: application rate 320 g/ha; visual grading after ca. 3 weeks vs untreated controls (100% = plants have died off, 0% = as control plants)
Summary of the method: as §1

STEME [11] = experiment: Herbicidal post-emergence action (Table B9); format: in vivo, Stellaria media; details: application rate 320 g/ha
Method: as §2

VERPE [12] = experiment: Herbicidal pre-emergence action (Table A11); format: in vivo, Veronica persica; details: application rate 1280 g/ha; visual grading after ca. 3 weeks
Summary of the method: as §1

SETVI [13] = experiment: Herbicidal post-emergence action (Table B8); format: in vivo, Setaria viridis; details: application rate 320 g/ha
Summary of the method: as §3

LOLRI [14] = experiment: Herbicidal post-emergence action (Table B5); format: in vivo, Lolium rigidum; details: application rate 320 g/ha; rated visually after about 3 weeks
Method: as §2

KCHSC [15] = experiment: Herbicidal post-emergence action (Table B4); format: in vivo, Kochia scoparia; details: application rate 1280 g/ha; rated visually after about 3 weeks
Method: as §2

ECHCG [16] = experiment: Herbicidal post-emergence action (Table B3); format: in vivo, Echinochloa crus-galli; details: Echinochloa crus-galli, post-emergence, 504 h; application rate 320 g/ha; rated visually after about 3 weeks; read-out: post-emergence activity against ECHCG
Summary of the method: as §3

ALOMY = experiment: Herbicidal post-emergence action (Table B2); format: in vivo, Alopecurus myosuroides; details: application rate 1280 g/ha; rated visually after about 3 weeks
Method: as §2

ABUTH [17] = experiment: Herbicidal post-emergence action (Table B1); format: in vivo, Abutilon theophrasti; details: application rate 320 g/ha; treated at one-leaf stage; rated visually after about 3 weeks vs untreated controls (100% = plants have died, 0% = like control plants)
Summary of the method: as §3

POAAN [18] = experiment: Herbicidal post-emergence action (Table B7); format: in vivo, Poa annua; details: application rate 320 g/ha
Summary of the method: as §3

ABUTH [19] = experiment: Herbicidal pre-emergence action (Table A1); format: in vivo, Abutilon theophrasti; details: application rate 1280 g/ha; visual grading after ca. 3 weeks vs untreated controls (100% = plants have died off, 0% = as control plants)
Summary of the method: as §1

VERPE [20] = experiment: Herbicidal post-emergence action (Table B10); format: in vivo, Veronica persica; details: application rate 320 g/ha
Summary of the method: as §3

Structure (SMILES): O=C1N(Cc2ccccc2)CCC12CCCN(Cc1c(F)cccc1F)C2=O (racemic) [I-089]
- pre-emergence activity against POAAN (POAAN [1]): 100%
- pre-emergence activity against LOLRI (LOLRI [2]; application rate 320 g/ha): 100%
- pre-emergence activity against STEME (STEME [3]): 90%
- post-emergence activity against DIGSA (DIGSA [4]; application rate 1280 g/ha): 90%
- pre-emergence activity against SETVI (SETVI [5]): 100%
- pre-emergence activity against KCHSC (KCHSC [6]; application rate 1280 g/ha): 90%
- pre-emergence activity against MATIN (MATIN): 90%
- pre-emergence activity against DIGSA (DIGSA [7]): 90%
- pre-emergence activity against ECHCG (ECHCG [8]; application rate 320 g/ha): 100%

Structure (SMILES): O=C1N(Cc2cnc(Br)s2)CCCC12CCCN(Cc1cnc(Br)s1)C2=O (single isomer, unassigned; (+)) [I-205, (+)-2,8-bis[(2-bromo-1,3-thiazol-5-yl)methyl]-2,8-diazaspiro[5.5]undecane-1,7-dione]
- pest or weed control at 320 g/ha (POAAN [1]; Poa annua, pre-emergence, 504 h, read-out: pre-emergence activity against POAAN): 100%
- pest or weed control at 1280 g/ha (LOLRI [2]; Lolium rigidum, pre-emergence, 504 h, application rate 1280 g/ha, read-out: pre-emergence activity against LOLRI): 100%
- pre-emergence activity against STEME (STEME [3]): 90%
- post-emergence activity against AMARE (AMARE [9]): 90%
- pre-emergence activity against AMARE (AMARE [10]): 90%
- post-emergence activity against STEME (STEME [11]): 90%
- pre-emergence activity against VERPE (VERPE [12]): 100%
- post-emergence activity against SETVI (SETVI [13]): 90%
- post-emergence activity against DIGSA (DIGSA [4]; application rate 320 g/ha): 90%
- post-emergence activity against LOLRI (LOLRI [14]): 90%
- pre-emergence activity against SETVI (SETVI [5]): 100%
- post-emergence activity against KCHSC (KCHSC [15]): 90%
- pre-emergence activity against KCHSC (KCHSC [6]; application rate 320 g/ha): 100%
- pest or weed control at 320 g/ha (ECHCG [16]): 90%
- post-emergence activity against ALOMY (ALOMY): 90%
- pre-emergence activity against MATIN (MATIN): 90%
- post-emergence activity against ABUTH (ABUTH [17]): 90%
- post-emergence activity against POAAN (POAAN [18]): 90%
- pre-emergence activity against ABUTH (ABUTH [19]): 90%
- pre-emergence activity against DIGSA (DIGSA [7]): 90%
- pre-emergence activity against ECHCG (ECHCG [8]; application rate 1280 g/ha): 90%
- post-emergence activity against VERPE (VERPE [20]): 90%
